Reference: ChEMBL document CHEMBL6087472, “Development and Discovery of a Selective Degrader of Casein Kinases 1 δ/ε” (J Med Chem, 2025)
The source made the active and inactive calls. No cut-off for these calls is given here.

Tests used:
[1] = biological target: T1, von Hippel-Lindau disease tumor suppressor/Casein kinase I isoform delta (Homo sapiens, UniProt P48730+P40337); assay: PROTAC activity at VHL/full length N-terminal Nano-luc fused CK1 delta (unknown origin) transfected in HEK293T cells incubated for 2 hrs followed by substrate addition by NanoBRET target engagement assay; assay type: cell-based
Target sequence in this assay (P40337 whole entry, looked up, the tested form may be a part, canonical isoform): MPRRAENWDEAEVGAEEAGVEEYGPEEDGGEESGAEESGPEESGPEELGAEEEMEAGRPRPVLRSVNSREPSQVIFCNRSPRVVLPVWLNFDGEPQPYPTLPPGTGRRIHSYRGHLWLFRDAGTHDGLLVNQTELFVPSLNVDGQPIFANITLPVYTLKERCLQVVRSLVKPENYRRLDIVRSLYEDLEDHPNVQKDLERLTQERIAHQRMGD
Target sequence in this assay (P48730 whole entry, looked up, the tested form may be a part, canonical isoform): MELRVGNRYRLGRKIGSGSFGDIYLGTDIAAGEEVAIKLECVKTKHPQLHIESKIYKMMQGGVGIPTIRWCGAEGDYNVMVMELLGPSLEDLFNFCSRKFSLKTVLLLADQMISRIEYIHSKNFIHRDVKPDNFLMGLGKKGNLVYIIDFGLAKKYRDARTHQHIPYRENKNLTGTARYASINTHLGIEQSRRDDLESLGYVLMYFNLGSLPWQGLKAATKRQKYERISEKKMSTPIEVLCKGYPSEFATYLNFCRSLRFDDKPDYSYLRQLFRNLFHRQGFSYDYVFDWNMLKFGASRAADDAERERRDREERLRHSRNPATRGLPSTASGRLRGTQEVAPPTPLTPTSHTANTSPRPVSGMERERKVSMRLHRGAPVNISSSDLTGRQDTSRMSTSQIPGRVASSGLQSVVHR

[2] = biological target: T1, von Hippel-Lindau disease tumor suppressor/Casein kinase I isoform delta; assay: PROTAC activity at VHL/Hibit-fused CK1 delta in human MV4-11 cells assessed as degradation of CK1-delta incubated for 6 hrs by Nano-Glo HiBiT assay relative to control; assay type: cell-based
Target sequence in this assay (P40337 whole entry, looked up, the tested form may be a part, canonical isoform): as the sequence (P40337 whole entry, looked up, the tested form may be a part, canonical isoform) above
Target sequence in this assay (P48730 whole entry, looked up, the tested form may be a part, canonical isoform): as the sequence (P48730 whole entry, looked up, the tested form may be a part, canonical isoform) above

[3] = biological target: T2, von Hippel-Lindau disease tumor suppressor/Casein kinase I isoform alpha (Homo sapiens) (UniProt P48729+P40337); assay: PROTAC activity at VHL/Hibit-fused CK1 alpha in human MV4-11 cells assessed as degradation of CK1-alpha incubated for 6 hrs by Nano-Glo HiBiT assay relative to control; assay type: cell-based
T2 sequence (P40337 whole entry, looked up, the tested form may be a part, canonical isoform): as the sequence (P40337 whole entry, looked up, the tested form may be a part, canonical isoform) above
T2 sequence (P48729 whole entry, looked up, the tested form may be a part, canonical isoform): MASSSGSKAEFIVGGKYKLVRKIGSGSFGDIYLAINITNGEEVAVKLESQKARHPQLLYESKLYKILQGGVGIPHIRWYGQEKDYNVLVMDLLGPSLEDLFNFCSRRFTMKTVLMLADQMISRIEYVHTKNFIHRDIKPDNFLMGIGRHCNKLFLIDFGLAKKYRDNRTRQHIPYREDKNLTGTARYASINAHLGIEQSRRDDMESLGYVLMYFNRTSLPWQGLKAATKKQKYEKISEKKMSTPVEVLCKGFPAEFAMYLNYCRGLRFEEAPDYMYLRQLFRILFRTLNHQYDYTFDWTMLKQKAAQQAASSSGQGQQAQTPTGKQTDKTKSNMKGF

MV4-11 [4] = assay: Cytotoxicity in human MV4-11 cells at 10 uM measured after 72 hrs by alamar blue assay; assay type: functional, cell-based
[5] = biological target: T1, von Hippel-Lindau disease tumor suppressor/Casein kinase I isoform delta; assay: PROTAC activity at VHL/CK1 delta in HEK293 cells assessed as induction of degradation of CK1 delta at upto 20 uM pretreated with LGK974 followed by compound addition and measured after 6 hrs by Western blot analysis; assay type: cell-based
Target sequence in this assay (P40337 whole entry, looked up, the tested form may be a part, canonical isoform): as the sequence (P40337 whole entry, looked up, the tested form may be a part, canonical isoform) above
Target sequence in this assay (P48730 whole entry, looked up, the tested form may be a part, canonical isoform): as the sequence (P48730 whole entry, looked up, the tested form may be a part, canonical isoform) above

[6] = biological target: T3, von Hippel-Lindau disease tumor suppressor/Casein kinase I isoform epsilon (Homo sapiens) (UniProt P49674+P40337); assay: PROTAC activity at VHL/CK1 epsilon in HEK293 cells assessed as induction of degradation of CK1 epsilon at upto 20 uM pretreated with LGK974 followed by compound addition and measured after 6 hrs by Western blot analysis; assay type: cell-based
T3 sequence (P40337 whole entry, looked up, canonical isoform): as the sequence (P40337 whole entry, looked up, the tested form may be a part, canonical isoform) above
T3 sequence (P49674 whole entry, looked up, canonical isoform): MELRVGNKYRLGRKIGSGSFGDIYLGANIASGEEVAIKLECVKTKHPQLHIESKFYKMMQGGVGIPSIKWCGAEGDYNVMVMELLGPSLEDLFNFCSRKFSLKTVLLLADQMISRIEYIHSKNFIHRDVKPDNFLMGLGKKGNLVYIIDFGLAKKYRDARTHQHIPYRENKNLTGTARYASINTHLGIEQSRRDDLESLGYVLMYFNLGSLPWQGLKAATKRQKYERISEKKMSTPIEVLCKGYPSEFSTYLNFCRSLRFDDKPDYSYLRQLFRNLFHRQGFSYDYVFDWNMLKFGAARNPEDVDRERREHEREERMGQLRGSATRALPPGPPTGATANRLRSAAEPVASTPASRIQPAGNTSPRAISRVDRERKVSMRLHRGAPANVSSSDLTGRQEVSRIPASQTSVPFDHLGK

[7] = biological target: T3, von Hippel-Lindau disease tumor suppressor/Casein kinase I isoform epsilon (Homo sapiens); assay: PROTAC activity at VHL/CK1 epsilon in HEK293 cells assessed as dephosphorylation of DVL3 at high concentration pretreated with LGK974 followed by compound addition and measured after 6 hrs by Western blot analysis; assay type: cell-based
[8] = biological target: T1, von Hippel-Lindau disease tumor suppressor/Casein kinase I isoform delta; assay: PROTAC activity at VHL/CK1 delta in HEK293 cells assessed as dephosphorylation of DVL3 at high concentration pretreated with LGK974 followed by compound addition and measured after 6 hrs by Western blot analysis; assay type: cell-based
Target sequence in this assay (P40337 whole entry, looked up, the tested form may be a part, canonical isoform): as the sequence (P40337 whole entry, looked up, the tested form may be a part, canonical isoform) above
Target sequence in this assay (P48730 whole entry, looked up, the tested form may be a part, canonical isoform): as the sequence (P48730 whole entry, looked up, the tested form may be a part, canonical isoform) above

[9] = biological target: T1, von Hippel-Lindau disease tumor suppressor/Casein kinase I isoform delta; assay: PROTAC activity at VHL/CK1 delta in HEK293 cells assessed as induction of degradation of CK1 delta by Western blot analysis; assay type: cell-based
[10] = biological target: T3, von Hippel-Lindau disease tumor suppressor/Casein kinase I isoform epsilon (Homo sapiens); assay: PROTAC activity at VHL/CK1 epsilon in HEK293 cells assessed as induction of degradation of CK1 epsilon at 0.01 to 30 uM by Western blot analysis; assay type: cell-based; conditions: dose 0.01-30 µM
[11] = biological target: T2, von Hippel-Lindau disease tumor suppressor/Casein kinase I isoform alpha (Homo sapiens); assay: PROTAC activity at VHL/CK1 alpha in HEK293 cells assessed as induction of degradation of CK1 alpha at >10 uM by Western blot analysis; assay type: cell-based
[12] = biological target: T4, Protein cereblon/Casein kinase I isoform delta (Homo sapiens, UniProt P48730+Q96SW2); assay: PROTAC activity at CRBN/full length N-terminal Nano-luc fused CK1 delta (unknown origin) transfected in HEK293T cells incubated for 2 hrs followed by substrate addition by NanoBRET target engagement assay; assay type: cell-based
Target sequence in this assay (P48730 whole entry, the tested form may be a part, canonical isoform): as the sequence (P48730 whole entry, looked up, the tested form may be a part, canonical isoform) above
Target sequence in this assay (Q96SW2 whole entry, the tested form may be a part, canonical isoform): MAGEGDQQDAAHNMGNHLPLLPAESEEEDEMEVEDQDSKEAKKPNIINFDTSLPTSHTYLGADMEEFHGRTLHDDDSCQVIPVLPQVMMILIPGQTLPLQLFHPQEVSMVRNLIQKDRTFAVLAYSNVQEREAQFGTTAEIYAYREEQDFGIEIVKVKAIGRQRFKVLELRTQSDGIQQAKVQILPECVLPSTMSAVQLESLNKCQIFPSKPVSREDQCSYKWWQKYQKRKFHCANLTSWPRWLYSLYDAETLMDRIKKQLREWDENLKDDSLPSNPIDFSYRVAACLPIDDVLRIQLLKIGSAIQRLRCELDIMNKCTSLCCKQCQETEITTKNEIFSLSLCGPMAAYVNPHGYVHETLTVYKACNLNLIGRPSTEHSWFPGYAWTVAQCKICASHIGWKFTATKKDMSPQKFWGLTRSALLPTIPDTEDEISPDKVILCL

[13] = biological target: T4, Protein cereblon/Casein kinase I isoform delta; assay: PROTAC activity at CRBN/Hibit-fused CK1 delta in human MV4-11 cells assessed as degradation of CK1-delta incubated for 6 hrs by Nano-Glo HiBiT assay relative to control; assay type: cell-based
Target sequence in this assay (P48730 whole entry, looked up, the tested form may be a part, canonical isoform): as the sequence (P48730 whole entry, looked up, the tested form may be a part, canonical isoform) above
Target sequence in this assay (Q96SW2 whole entry, looked up, the tested form may be a part, canonical isoform): as the sequence (Q96SW2 whole entry, the tested form may be a part, canonical isoform) above

[14] = biological target: Casein kinase I isoform delta (Homo sapiens) (UniProt P48730); assay: Inhibition of CK1 delta in HEK293 cells at 5 to 10 uM measured after 6 hrs by Western blot analysis; assay type: cell-based; conditions: dose 5-10 µM
[15] = biological target: T5, Casein kinase I isoform epsilon (Homo sapiens, UniProt P49674); assay: Inhibition of CK1 epsilon in HEK293 cells at 5 to 10 uM measured after 6 hrs by Western blot analysis; assay type: cell-based; conditions: dose 5-10 µM
[16] = biological target: Cereblon/Casein kinase I alpha (Homo sapiens) (UniProt P48729+Q96SW2); assay: PROTAC activity at CRBN/Hibit-fused CK1 alpha in human MV4-11 cells assessed as degradation of CK1-alpha incubated for 6 hrs by Nano-Glo HiBiT assay relative to control; assay type: cell-based
Cereblon/Casein kinase I alpha (Homo sapiens), sequence (P48729 2-337 limits assumed): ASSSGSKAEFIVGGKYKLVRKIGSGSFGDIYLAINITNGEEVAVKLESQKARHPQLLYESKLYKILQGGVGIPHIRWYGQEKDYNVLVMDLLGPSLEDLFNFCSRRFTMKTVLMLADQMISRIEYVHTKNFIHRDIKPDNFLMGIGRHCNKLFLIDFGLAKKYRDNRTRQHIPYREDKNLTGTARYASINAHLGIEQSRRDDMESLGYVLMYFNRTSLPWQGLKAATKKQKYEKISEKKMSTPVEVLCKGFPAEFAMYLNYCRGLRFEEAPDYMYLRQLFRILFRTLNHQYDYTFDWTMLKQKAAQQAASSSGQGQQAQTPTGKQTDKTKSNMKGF
Cereblon/Casein kinase I alpha (Homo sapiens), sequence (Q96SW2 whole entry partner, the tested form may be a part, canonical isoform): as the sequence (Q96SW2 whole entry, the tested form may be a part, canonical isoform) above

[17] = biological target: T4, Protein cereblon/Casein kinase I isoform delta; assay: PROTAC activity at CRBN/Hibit-fused CK1 delta in human MV4-11 cells assessed as degradation of CK1-delta at 10 nM incubated for 6 hrs by Nano-Glo HiBiT assay; assay type: cell-based
Target sequence in this assay (P48730 whole entry, looked up, the tested form may be a part, canonical isoform): as the sequence (P48730 whole entry, looked up, the tested form may be a part, canonical isoform) above
Target sequence in this assay (Q96SW2 whole entry, looked up, the tested form may be a part, canonical isoform): as the sequence (Q96SW2 whole entry, the tested form may be a part, canonical isoform) above

[18] = biological target: T1, von Hippel-Lindau disease tumor suppressor/Casein kinase I isoform delta; assay: PROTAC activity at VHL/Hibit-fused CK1 delta in human MV4-11 cells assessed as degradation of CK1-delta incubated for 6 hrs by Nano-Glo HiBiT assay; assay type: cell-based
[19] = biological target: T2, von Hippel-Lindau disease tumor suppressor/Casein kinase I isoform alpha (Homo sapiens); assay: PROTAC activity at VHL/CK1 alpha in HEK293 cells assessed as induction of degradation of CK1 alpha by measuring maximum efficacy at 5 to 10 uM measured after 6 hrs by Western blot analysis relative to control; assay type: cell-based; conditions: dose 5-10 µM
[20] = biological target: T1, von Hippel-Lindau disease tumor suppressor/Casein kinase I isoform delta; assay: PROTAC activity at VHL/CK1 delta in HEK293 cells assessed as induction of degradation of CK1 delta by measuring maximum efficacy at 5 to 10 uM measured after 6 hrs by Western blot analysis relative to control; assay type: cell-based; conditions: dose 5-10 µM
Target sequence in this assay (P40337 whole entry, looked up, the tested form may be a part, canonical isoform): as the sequence (P40337 whole entry, looked up, the tested form may be a part, canonical isoform) above
Target sequence in this assay (P48730 whole entry, looked up, the tested form may be a part, canonical isoform): as the sequence (P48730 whole entry, looked up, the tested form may be a part, canonical isoform) above

[21] = biological target: T3, von Hippel-Lindau disease tumor suppressor/Casein kinase I isoform epsilon (Homo sapiens); assay: PROTAC activity at VHL/CK1 epsilon in HEK293 cells assessed as induction of degradation of CK1 epsilon by measuring maximum efficacy at 5 to 10 uM measured after 6 hrs by Western blot analysis relative to control; assay type: cell-based; conditions: dose 5-10 µM
[22] = biological target: T5, Casein kinase I isoform epsilon; assay: Inhibition of CK1 epsilon (unknown origin)
[23] = Bioavailability in mouse; assay type: ADME, organism-based; conditions: in vivo
MV4-11 [24] = assay: Cytotoxicity in human MV4-11 cells at <5 uM measured after 60 hrs by alamar blue assay; assay type: functional, cell-based

SMILES | Emax [1] [%] | Emax [2] [%] | Emax [3] [%] | EC50 [12] [nM] | Emax [13] [%] | Emax [16] [%] | further results
Cc1ncsc1-c1ccc(CNC(=O)[C@@H]2C[C@@H](O)CN2C(=O)[C@@H](NC(=O)CC2CN(C(=O)CN3CCC(F)(Cn4cnc(-c5ccc(F)cn5)c4-c4ccnc5[nH]ccc45)CC3)C2)C(C)(C)C)cc1 | 2.4 | 21.7 | < 10 | – | – | – | –
Cc1ncsc1-c1ccc(CNC(=O)[C@@H]2C[C@H](O)CN2C(=O)[C@@H](NC(=O)CCCCCCC(=O)N2CCC(F)(Cn3cnc(-c4ccc(F)cn4)c3-c3ccnc4[nH]ccc34)CC2)C(C)(C)C)cc1 | 2.4 | < 10 | < 10 | – | – | – | Activity (MV4-11 [4]): Active; Compound Showed Milder Cytotoxic Effect; Activity [5]: inactive; Activity [6]: inactive; Activity [7]: Active; Activity [8]: Active; DC50 [9]: 200 nM; Activity [10]: Weak_effect; Activity [11]: Weak_effect
Cc1ncsc1-c1ccc(CNC(=O)[C@@H]2C[C@@H](O)CN2C(=O)[C@@H](NC(=O)CC2CCN(C(=O)CN3CCC(F)(Cn4cnc(-c5ccc(F)cn5)c4-c4ccnc5[nH]ccc45)CC3)CC2)C(C)(C)C)cc1 | 2 | 29.1 | < 10 | – | – | – | –
Cc1ncsc1-c1ccc(CNC(=O)[C@@H]2C[C@@H](O)CN2C(=O)[C@@H](NC(=O)CC2CN(C(=O)CCOCCOCCN3CCC(F)(Cn4cnc(-c5ccc(F)cn5)c4-c4ccnc5[nH]ccc45)CC3)C2)C(C)(C)C)cc1 | 6.3 | < 10 | < 10 | – | – | – | –
Cc1ncsc1-c1ccc(CNC(=O)[C@@H]2C[C@@H](O)CN2C(=O)[C@@H](NC(=O)CC2CCN(C(=O)CCOCCOCCOCCN3CCC(F)(Cn4cnc(-c5ccc(F)cn5)c4-c4ccnc5[nH]ccc45)CC3)CC2)C(C)(C)C)cc1 | 3.2 | < 10 | < 10 | – | – | – | –
O=C1CCC(N2C(=O)c3cccc(OCCCCCCN4CCC(F)(Cn5cnc(-c6ccc(F)cn6)c5-c5ccnc6[nH]ccc56)CC4)c3C2=O)C(=O)N1 (stereo unspecified) | – | – | – | 1.5 | 15 | – | inhibition [14]: Active; inhibition [15]: Active
O=C(CCOCCOCCOCCOCCN1CCC(F)(Cn2cnc(-c3ccc(F)cn3)c2-c2ccnc3[nH]ccc23)CC1)NCCNc1cccc2c1C(=O)N(C1CCC(=O)NC1=O)C2=O (stereo unspecified) | – | – | – | 11.2 | 40.2 | 11.3 | Activity [17]: Active
Cc1ncsc1-c1ccc(CNC(=O)[C@@H]2C[C@@H](O)CN2C(=O)[C@@H](NC(=O)CCOCCOCCOCCOCCN2CCC(F)(Cn3cnc(-c4ccc(F)cn4)c3-c3ccnc4[nH]ccc34)CC2)C(C)(C)C)cc1 | 2.8 | < 10 | < 10 | – | – | – | –
O=C(COc1cccc2c1C(=O)N(C1CCC(=O)NC1=O)C2=O)NCCOCCOCCOCCC(=O)N1CCC(F)(Cn2cnc(-c3ccc(F)cn3)c2-c2ccnc3[nH]ccc23)CC1 (stereo unspecified) | – | – | – | 16 | < 10 | 12.6 | –
O=C1CCC(N2C(=O)c3cccc(NCCCCCC(=O)N4CCC(F)(Cn5cnc(-c6ccc(F)cn6)c5-c5ccnc6[nH]ccc56)CC4)c3C2=O)C(=O)N1 (stereo unspecified) | – | – | – | 4.3 | 35 | < 10 | Activity [17]: Active
O=C(CCOCCOCCN1CCC(F)(Cn2cnc(-c3ccc(F)cn3)c2-c2ccnc3[nH]ccc23)CC1)NCCNc1cccc2c1C(=O)N(C1CCC(=O)NC1=O)C2=O (stereo unspecified) | – | – | – | 9.3 | 36.4 | 25 | Activity [17]: Active
O=C(COc1cccc2c1C(=O)N(C1CCC(=O)NC1=O)C2=O)NCc1ccc(CC(=O)N2CCC(F)(Cn3cnc(-c4ccc(F)cn4)c3-c3ccnc4[nH]ccc34)CC2)cc1 (stereo unspecified) | – | – | – | 4.6 | 14.8 | 19.7 | –
Cc1ncsc1-c1ccc(CNC(=O)[C@@H]2C[C@@H](O)CN2C(=O)[C@@H](NC(=O)CCOCCOCCN2CCC(F)(Cn3cnc(-c4ccc(F)cn4)c3-c3ccnc4[nH]ccc34)CC2)C(C)(C)C)cc1 | 1.8 | 50.8 | 17.3 | – | – | – | DC50 [18]: 9270 nM; Emax [19]: > 50%; Emax [20]: > 50%; Emax [21]: > 50%
O=C1CCC(N2C(=O)c3cccc(NCCOCCOCCOCCC(=O)N4CCC(F)(Cn5cnc(-c6ccc(F)cn6)c5-c5ccnc6[nH]ccc56)CC4)c3C2=O)C(=O)N1 (stereo unspecified) | – | – | – | 467 | 34.4 | 16.1 | –
Cc1ncsc1-c1ccc(CNC(=O)[C@@H]2C[C@@H](O)CN2C(=O)[C@@H](NC(=O)CC2CN(C(=O)CCOCCOCCOCCN3CCC(F)(Cn4cnc(-c5ccc(F)cn5)c4-c4ccnc5[nH]ccc45)CC3)C2)C(C)(C)C)cc1 | 6.4 | < 10 | < 10 | – | – | – | –
O=C1CCC(N2C(=O)c3cccc(NCc4ccc(CC(=O)N5CCC(F)(Cn6cnc(-c7ccc(F)cn7)c6-c6ccnc7[nH]ccc67)CC5)cc4)c3C2=O)C(=O)N1 (stereo unspecified) | – | – | – | 9.2 | 14.4 | < 10 | –
Cc1ncsc1-c1ccc(CNC(=O)[C@@H]2C[C@@H](O)CN2C(=O)[C@@H](NC(=O)Cc2ccc(CNC(=O)CN3CCC(F)(Cn4cnc(-c5ccc(F)cn5)c4-c4ccnc5[nH]ccc45)CC3)cc2)C(C)(C)C)cc1 | 0.5 | 19.1 | < 10 | – | – | – | –
CN1CCC(F)(Cn2cnc(-c3ccc(F)cn3)c2-c2ccnc3[nH]ccc23)CC1 | – | – | – | – | – | – | IC50 [22]: 27.7 nM; bioavailability [23]: 0.57%; Activity (MV4-11 [24]): Active
O=C(CCOCCOCCOCCN1CCC(F)(Cn2cnc(-c3ccc(F)cn3)c2-c2ccnc3[nH]ccc23)CC1)NCCNc1cccc2c1C(=O)N(C1CCC(=O)NC1=O)C2=O (stereo unspecified) | – | – | – | 7.7 | 36 | 20.2 | Activity [17]: Active
Cc1ncsc1-c1ccc(CNC(=O)[C@@H]2C[C@@H](O)CN2C(=O)[C@@H](NC(=O)CCOCCOCCOCCN2CCC(F)(Cn3cnc(-c4ccc(F)cn4)c3-c3ccnc4[nH]ccc34)CC2)C(C)(C)C)cc1 | 4.3 | 35 | 35.9 | – | – | – | Activity (MV4-11 [24]): Active
O=C(COc1cccc2c1C(=O)N(C1CCC(=O)NC1=O)C2=O)NCCCCCC(=O)N1CCC(F)(Cn2cnc(-c3ccc(F)cn3)c2-c2ccnc3[nH]ccc23)CC1 (stereo unspecified) | – | – | – | 9.3 | 18.2 | < 10 | –
